According to article PMC5218480 (PLoS ONE, 2017):

Tested on: MV-4-11 cells
Assay: Gene expression microarray analysis (Affymetrix PrimeView) and GSEA
Type: cell-based, human
Set-up: RFU PODN (11730768_x_at) / Fold change /veh PODN (11730768_x_at) / RFU LINC00158 (11744669_a_at) / Fold change /veh LINC00158 (11744669_a_at) / RFU DUSP10 (11751237_a_at) / Fold change /veh DUSP10 (11751237_a_at) / RFU ID3 (11757404_x_at) / Fold change /veh ID3 (11757404_x_at) / RFU PLEKHG5 (11737974_s_at) / Fold change /veh PLEKHG5 (11737974_s_at) / RFU LRRC4B (11730491_at) / Fold change /veh LRRC4B (11730491_at) / RFU GIMAP4 (11747438_a_at) / Fold change /veh GIMAP4 (11747438_a_at) / RFU KRT8 (11758183_x_at) / Fold change /veh KRT8 (11758183_x_at) / RFU CNN1 (11734310_a_at) / Fold change /veh CNN1 (11734310_a_at) / RFU VPS37D (11726825_at) / Fold change /veh VPS37D (11726825_at) / RFU C10orf10 (11716522_x_at) / Fold change /veh C10orf10 (11716522_x_at) / RFU KIR2DL2 /// KIR2DL4 /// KIR2DL5A /// KIR2DL5B /// KIR2DS1 /// KIR2DS2 /// KIR2DS3 /// KIR2DS4 /// KIR3DL3 /// KIR3DL3 /// KIR3DS1 (11738374_at) / Fold change /veh KIR2DL2 /// KIR2DL4 /// KIR2DL5A /// KIR2DL5B /// KIR2DS1 /// KIR2DS2 /// KIR2DS3 /// KIR2DS4 /// KIR3DL3 /// KIR3DL3 /// KIR3DS1 (11738374_at) / RFU C1QL1 (11718748_at) / Fold change /veh C1QL1 (11718748_at) / RFU TMPRSS4 (11747572_a_at) / Fold change /veh TMPRSS4 (11747572_a_at) / RFU HAMP (11756126_x_at) / Fold change /veh HAMP (11756126_x_at) / RFU RNFT2 (11725882_a_at) / Fold change /veh RNFT2 (11725882_a_at) / RFU NR4A2 (11747474_a_at) / Fold change /veh NR4A2 (11747474_a_at) / RFU ABCC12 (11746883_a_at) / Fold change /veh ABCC12 (11746883_a_at) / RFU TMEM136 (11760407_x_at) / Fold change /veh TMEM136 (11760407_x_at) / RFU CLDN22 /// WWC2 (11732394_at) / Fold change /veh CLDN22 /// WWC2 (11732394_at) / RFU HLA-DPB1 (11760878_x_at) / Fold change /veh HLA-DPB1 (11760878_x_at) / RFU SPINT1 (11716480_a_at) / Fold change /veh SPINT1 (11716480_a_at) / RFU GAP43 (11754022_s_at) / Fold change /veh GAP43 (11754022_s_at) / RFU A4GNT (11735810_at) / Fold change /veh A4GNT (11735810_at) / RFU PRB3 (11715151_x_at) / Fold change /veh PRB3 (11715151_x_at) / RFU TUBB4B (11761932_at) / Fold change /veh TUBB4B (11761932_at) / RFU CAPN14 (11732068_a_at) / Fold change /veh CAPN14 (11732068_a_at) / RFU TMCC2 (11721928_a_at) / Fold change /veh TMCC2 (11721928_a_at) / RFU IRGQ (11745062_a_at) / Fold change /veh IRGQ (11745062_a_at) / RFU FAM174B (11720279_a_at) / Fold change /veh FAM174B (11720279_a_at) / RFU TMPRSS4 (11748680_a_at) / Fold change /veh TMPRSS4 (11748680_a_at) / RFU FAM212B (11763350_a_at) / Fold change /veh FAM212B (11763350_a_at) / RFU PLEKHG5 (11743358_a_at) / Fold change /veh PLEKHG5 (11743358_a_at) / RFU ZSCAN30 (11745921_a_at) / Fold change /veh ZSCAN30 (11745921_a_at) / RFU CMKLR1 (11741424_a_at) / Fold change /veh CMKLR1 (11741424_a_at) / RFU LOC101060620 /// MAPK8IP1 (11723275_at) / Fold change /veh LOC101060620 /// MAPK8IP1 (11723275_at) / RFU SPTSSB (11747773_x_at) / Fold change /veh SPTSSB (11747773_x_at) / RFU PRSS12 (11739890_at) / Fold change /veh PRSS12 (11739890_at) / RFU BIN1 (11741810_x_at) / Fold change /veh BIN1 (11741810_x_at) / RFU WNT11 (11732464_a_at) / Fold change /veh WNT11 (11732464_a_at) / RFU C10orf10 (11716521_a_at) / Fold change /veh C10orf10 (11716521_a_at) / RFU C5orf56 (11738089_at) / Fold change /veh C5orf56 (11738089_at) / RFU CYB561 (11721691_x_at) / Fold change /veh CYB561 (11721691_x_at) / RFU ANKRD19P (11752326_a_at) / Fold change /veh ANKRD19P (11752326_a_at) / RFU OR2T12 /// OR2T33 /// OR2T8 (11738714_s_at) / Fold change /veh OR2T12 /// OR2T33 /// OR2T8 (11738714_s_at) / RFU VCAN (11748164_a_at) / Fold change /veh VCAN (11748164_a_at) / RFU JSRP1 (11732532_at) / Fold change /veh JSRP1 (11732532_at) / RFU KRTAP10-11 (11738290_x_at) / Fold change /veh KRTAP10-11 (11738290_x_at) / RFU MYO3A (11730013_a_at) / Fold change /veh MYO3A (11730013_a_at) / RFU EBF3 (11725865_a_at) / Fold change /veh EBF3 (11725865_a_at) / RFU CAMK2N1 (11719241_x_at) / Fold change /veh CAMK2N1 (11719241_x_at) / RFU C5orf56 (11738088_a_at) / Fold change /veh C5orf56 (11738088_a_at) / RFU OLFML3 (11715873_a_at) / Fold change /veh OLFML3 (11715873_a_at) / RFU LOC100653217 /// NTM (11731650_a_at) / Fold change /veh LOC100653217 /// NTM (11731650_a_at) / RFU MAPK11 (11762145_a_at) / Fold change /veh MAPK11 (11762145_a_at) / RFU FIZ1 (11724087_x_at) / Fold change /veh FIZ1 (11724087_x_at) / RFU OASL (11726364_x_at) / Fold change /veh OASL (11726364_x_at) / RFU SOX15 (11748057_x_at) / Fold change /veh SOX15 (11748057_x_at) / RFU CD79A (11719716_a_at) / Fold change /veh CD79A (11719716_a_at) / RFU HIST1H1D (11736915_at) / Fold change /veh HIST1H1D (11736915_at) / RFU CASKIN2 (11723855_a_at) / Fold change /veh CASKIN2 (11723855_a_at) / RFU LOC730098 (11760151_x_at) / Fold change /veh LOC730098 (11760151_x_at) / RFU OR4N2 (11742367_at) / Fold change /veh OR4N2 (11742367_at) / RFU PRRT2 (11749266_a_at) / Fold change /veh PRRT2 (11749266_a_at) / RFU SNX32 (11753110_a_at) / Fold change /veh SNX32 (11753110_a_at) / RFU CDHR5 (11726645_a_at) / Fold change /veh CDHR5 (11726645_a_at) / RFU RCAN1 (11760418_a_at) / Fold change /veh RCAN1 (11760418_a_at) / RFU FAM167A (11723789_a_at) / Fold change /veh FAM167A (11723789_a_at) / RFU FAM26E (11764081_at) / Fold change /veh FAM26E (11764081_at) / RFU ISYNA1 (11749810_s_at) / Fold change /veh ISYNA1 (11749810_s_at) / RFU ACY1 (11761880_at) / Fold change /veh ACY1 (11761880_at) / RFU 11764098_at / Fold change /veh 11764098_at / RFU SAMD14 (11745864_x_at) / Fold change /veh SAMD14 (11745864_x_at) / RFU NPB (11741838_a_at) / Fold change /veh NPB (11741838_a_at) / RFU TMPRSS6 (11731388_a_at) / Fold change /veh TMPRSS6 (11731388_a_at) / RFU KRTAP10-2 (11738614_at) / Fold change /veh KRTAP10-2 (11738614_at) / RFU ARHGAP8 /// PRR5-ARHGAP8 (11727945_x_at) / Fold change /veh ARHGAP8 /// PRR5-ARHGAP8 (11727945_x_at) / RFU KRTAP5-7 /// NADSYN1 (11734609_at) / Fold change /veh KRTAP5-7 /// NADSYN1 (11734609_at) / RFU RASL12 (11751679_a_at) / Fold change /veh RASL12 (11751679_a_at) / RFU CDKN2B (11736163_a_at) / Fold change /veh CDKN2B (11736163_a_at) / RFU PRF1 (11729649_at) / Fold change /veh PRF1 (11729649_at) / RFU, ZNF638 /// ZNF638-IT1 / Fold change vs veh, ZNF638 /// ZNF638-IT1 / RFU, PANK3 / Fold change vs veh, PANK3 / RFU, SH3YL1 / Fold change vs veh, SH3YL1 / RFU, ZEB2 / Fold change vs veh, ZEB2 / RFU, NRIP1 / Fold change vs veh, NRIP1 / RFU, PTTG1IP / Fold change vs veh, PTTG1IP / RFU, CAPN2 / Fold change vs veh, CAPN2 / RFU, MED14 / Fold change vs veh, MED14 / RFU, SNORA58 / Fold change vs veh, SNORA58 / RFU, C1orf63 / Fold change vs veh, C1orf63 / RFU, LRRFIP1 / Fold change vs veh, LRRFIP1 / RFU, NDUFAF7 / Fold change vs veh, NDUFAF7 / RFU, SLC12A2 / Fold change vs veh, SLC12A2 / RFU, IBTK / Fold change vs veh, IBTK / RFU, ESF1 / Fold change vs veh, ESF1 / Fold change vs veh, TMEM50B / RFU, TAOK1 / Fold change vs veh, TAOK1 / RFU, ACBD3 / Fold change vs veh, ACBD3 / RFU, TMA16 / Fold change vs veh, TMA16 / RFU, RWDD3 / Fold change vs veh, RWDD3 / RFU, BCAT1 / Fold change vs veh, BCAT1 / RFU, EDEM3 / Fold change vs veh, EDEM3 / RFU, TMEM33 / Fold change vs veh, TMEM33 / RFU, WDR75 / Fold change vs veh, WDR75 / RFU, AHCTF1 / Fold change vs veh, AHCTF1 / RFU, TFRC / Fold change vs veh, TFRC / RFU, ZDHHC17 / Fold change vs veh, ZDHHC17 / RFU, NOM1 / Fold change vs veh, NOM1 / RFU, ARL8B / Fold change vs veh, ARL8B / RFU, ZBTB11 / Fold change vs veh, ZBTB11 / RFU, TAMM41 / Fold change vs veh, TAMM41 / RFU, KIAA1704 /// LOC100996395 / Fold change vs veh, KIAA1704 /// LOC100996395 / RFU, ING1 / Fold change vs veh, ING1 / RFU, TRMT61B / Fold change vs veh, TRMT61B / RFU, FUBP3 / Fold change vs veh, FUBP3 / RFU, TP53 / Fold change vs veh, TP53 / RFU, TNKS2 / Fold change vs veh, TNKS2 / RFU, ZFP14 / Fold change vs veh, ZFP14 / RFU, ACTR2 / Fold change vs veh, ACTR2 / RFU, PPP3R1 / Fold change vs veh, PPP3R1 / RFU, PIK3R1 / Fold change vs veh, PIK3R1 / RFU, HNRNPA1 / Fold change vs veh, HNRNPA1 / RFU, RNF170 / Fold change vs veh, RNF170 / RFU, ZNF28 / Fold change vs veh, ZNF28 / RFU, RNGTT / Fold change vs veh, RNGTT / RFU, OGT / Fold change vs veh, OGT / RFU, BRD1 / Fold change vs veh, BRD1 / RFU, MARS / Fold change vs veh, MARS / RFU, ZNF655 / Fold change vs veh, ZNF655 / RFU, FAHD1 / Fold change vs veh, FAHD1 / RFU, BDP1 / Fold change vs veh, BDP1 / RFU, LRRCC1 / Fold change vs veh, LRRCC1 / RFU, ARID1A / Fold change vs veh, ARID1A / RFU, ZNF146 / Fold change vs veh, ZNF146 / RFU, ZNF330 / Fold change vs veh, ZNF330 / RFU, GPN3 / Fold change vs veh, GPN3 / RFU, C9orf123 / Fold change vs veh, C9orf123 / RFU, N4BP2L2 / Fold change vs veh, N4BP2L2 / RFU, ARFIP1 / Fold change vs veh, ARFIP1 / RFU, FAM179B / Fold change vs veh, FAM179B / RFU, BCL10 / Fold change vs veh, BCL10 / RFU, UHRF1BP1L / Fold change vs veh, UHRF1BP1L / RFU, BET1 / Fold change vs veh, BET1 / RFU, CNOT2 / Fold change vs veh, CNOT2 / RFU, ZNF268 / Fold change vs veh, ZNF268 / Fold change vs veh, ZNF507 / RFU, DGCR2 / Fold change vs veh, DGCR2 / RFU, WDSUB1 / Fold change vs veh, WDSUB1 / Fold change vs veh, HSP90B1 /// MIR3652 / RFU, ADSS / Fold change vs veh, ADSS / RFU, GK / Fold change vs veh, GK / RFU, ZNF148 / Fold change vs veh, ZNF148 / RFU, TAF9 / Fold change vs veh, TAF9 / RFU, SLC1A5 / Fold change vs veh, SLC1A5 / RFU, SLMO2 / Fold change vs veh, SLMO2 / RFU, ABCC4 / Fold change vs veh, ABCC4 / RFU, LOC101060439 /// RAP1B / Fold change vs veh, LOC101060439 /// RAP1B / RFU, RFX7 / Fold change vs veh, RFX7 / RFU, GTPBP10 / Fold change vs veh, GTPBP10 / RFU, CNEP1R1 / Fold change vs veh, CNEP1R1 / RFU, BIVM-ERCC5 /// ERCC5 / Fold change vs veh, BIVM-ERCC5 /// ERCC5 / RFU, ILF3 / Fold change vs veh, ILF3 / RFU 11762660_at / Fold change /veh 11762660_at / RFU VCAN (11757783_s_at) / Fold change /veh VCAN (11757783_s_at) / RFU DDX43 (11728927_at) / Fold change /veh DDX43 (11728927_at) / RFU KRT8 (11758188_x_at) / Fold change /veh KRT8 (11758188_x_at) / RFU NKD1 (11759106_at) / Fold change /veh NKD1 (11759106_at) / RFU SRD5A1 (11742802_a_at) / Fold change /veh SRD5A1 (11742802_a_at) / RFU TPSAB1 /// TPSB2 (11721975_s_at) / Fold change /veh TPSAB1 /// TPSB2 (11721975_s_at) / RFU GSTM3 (11746129_a_at) / Fold change /veh GSTM3 (11746129_a_at) / RFU IL23R (11737362_x_at) / Fold change /veh IL23R (11737362_x_at) / RFU TMEM51 (11727254_a_at) / Fold change /veh TMEM51 (11727254_a_at) / RFU PIWIL2 (11732686_x_at) / Fold change /veh PIWIL2 (11732686_x_at) / RFU ORM1 (11744905_x_at) / Fold change /veh ORM1 (11744905_x_at) / RFU CCDC152 (11743942_at) / Fold change /veh CCDC152 (11743942_at) / RFU ECM1 (11717891_a_at) / Fold change /veh ECM1 (11717891_a_at) / RFU IL23R (11748794_a_at) / Fold change /veh IL23R (11748794_a_at) / RFU TNFAIP8L3 (11732012_x_at) / Fold change /veh TNFAIP8L3 (11732012_x_at) / RFU MBOAT4 (11741988_at) / Fold change /veh MBOAT4 (11741988_at) / RFU 11764193_at / Fold change /veh 11764193_at / RFU TMEM53 (11763286_at) / Fold change /veh TMEM53 (11763286_at) / RFU MAGEB2 (11727129_at) / Fold change /veh MAGEB2 (11727129_at) / RFU TMEM200A (11744735_a_at) / Fold change /veh TMEM200A (11744735_a_at) / RFU CCDC152 (11751479_a_at) / Fold change /veh CCDC152 (11751479_a_at) / RFU FAM211A (11726209_a_at) / Fold change /veh FAM211A (11726209_a_at) / RFU RGS16 (11746705_a_at) / Fold change /veh RGS16 (11746705_a_at) / RFU VCAN (11755009_s_at) / Fold change /veh VCAN (11755009_s_at) / RFU RHOB (11743442_s_at) / Fold change /veh RHOB (11743442_s_at) / RFU RGS16 (11720943_a_at) / Fold change /veh RGS16 (11720943_a_at) / RFU RGS16 (11720944_at) / Fold change /veh RGS16 (11720944_at) / RFU, VPS4B / Fold change vs veh, VPS4B / RFU, CREB1 / Fold change vs veh, CREB1 / RFU, DNAJC13 / Fold change vs veh, DNAJC13 / RFU, GNAQ / Fold change vs veh, GNAQ / RFU, CDK5R1 / Fold change vs veh, CDK5R1 / RFU, ZRANB3 / Fold change vs veh, ZRANB3 / RFU, CUL4A / Fold change vs veh, CUL4A / RFU, CCNY / Fold change vs veh, CCNY / RFU, UFL1 / Fold change vs veh, UFL1 / RFU, COG3 / Fold change vs veh, COG3 / RFU, DIAPH2 / Fold change vs veh, DIAPH2 / RFU, SKA2 / Fold change vs veh, SKA2 / RFU, AFF3 / Fold change vs veh, AFF3 / RFU, LMF1 / Fold change vs veh, LMF1 / RFU, IPO11 / Fold change vs veh, IPO11 / RFU, DFFB / Fold change vs veh, DFFB / RFU, FOXP1 / Fold change vs veh, FOXP1 / RFU, CARD8 / Fold change vs veh, CARD8 / RFU, STRN3 / Fold change vs veh, STRN3 / RFU, ADK / Fold change vs veh, ADK / RFU, RASSF2 / Fold change vs veh, RASSF2 / RFU, WIPF1 / Fold change vs veh, WIPF1 / RFU, LARP1B / Fold change vs veh, LARP1B / RFU, RASA1 / Fold change vs veh, RASA1 / RFU, RB1 / Fold change vs veh, RB1 / RFU, PPFIA1 / Fold change vs veh, PPFIA1 / RFU, MAT2A / Fold change vs veh, MAT2A / RFU, CCT5 / Fold change vs veh, CCT5 / RFU, WDR92 / Fold change vs veh, WDR92 / RFU, CUX1 / Fold change vs veh, CUX1 / RFU, TTC7A / Fold change vs veh, TTC7A / RFU, TMEM135 / Fold change vs veh, TMEM135 / RFU, DEPTOR / Fold change vs veh, DEPTOR / RFU, CPM / Fold change vs veh, CPM / RFU, DNAJB6 / Fold change vs veh, DNAJB6 / RFU, CACNA2D3 / Fold change vs veh, CACNA2D3 / RFU, DTX4 / Fold change vs veh, DTX4 / RFU, TFCP2 / Fold change vs veh, TFCP2 / RFU, GMCL1 /// GMCL1P1 / Fold change vs veh, GMCL1 /// GMCL1P1 / RFU, AEBP2 / Fold change vs veh, AEBP2 / RFU, SNHG1 /// SNORD22 /// SNORD25 /// SNORD26 /// SNORD27 /// SNORD28 /// SNORD29 /// SNORD31 / Fold change vs veh, SNHG1 /// SNORD22 /// SNORD25 /// SNORD26 /// SNORD27 /// SNORD28 /// SNORD29 /// SNORD31 / Fold change (Aza/veh), C12orf56 (ProbeSet 11735607_a_at) / Fold change (ACY-1035/veh), C12orf56 (ProbeSet 11735607_a_at) / Fold change (Aza/veh), FGFR1OP (ProbeSet 11751329_s_at) / Fold change (ACY-1035/veh), FGFR1OP (ProbeSet 11751329_s_at) / Fold change (Aza/veh), VPS36 (ProbeSet 11739960_a_at) / Fold change (ACY-1035/veh), VPS36 (ProbeSet 11739960_a_at) / RFU SYPL1 (11715823_x_at) / Fold change /veh SYPL1 (11715823_x_at) / RFU IGFBP7 (11715501_s_at) / Fold change /veh IGFBP7 (11715501_s_at) / RFU REEP3 (11722064_at) / Fold change /veh REEP3 (11722064_at) / RFU IGLL1 (11728026_x_at) / Fold change /veh IGLL1 (11728026_x_at): dose or concentration left out as unconfirmed
Conditions: MV-4-11 cells, 48 hours

## Nc1ncn([C@@H]2O[C@H](CO)[C@@H](O)[C@H]2O)c(=O)n1 [azacitidine]
  Fold change /veh ANKRD19P (11752326_a_at): 1.10
